From US8609651B2, “Pharmaceutical compositions of benzodiazepines and method of use thereof” (Jazz Pharmaceuticals, Inc., priority 2006, dated 2013)
Values after ≈ are worked out from the molar mass of the structure shown.

Columns and labels:
[1] = Solubility of clonazepam in glycol ethers at 25° C.; settings: neat solvent, organic solvent or mixture, thermodynamic from solid
Procedure: 10 mg of clonazepam was weighed into glass vials used in the Pfeiffer mono-dose spray system (Pfeiffer of America, Princeton, N.J.). Four samples of each of four solvents were prepared as follows. 130-μL of each solvent was pipetted into the vial, which was then stoppered with a black chlorobutyl rubber stopper.
The vials were removed from the chamber, placed inside polyethylene centrifuge vials, and centrifuged for 2 minutes at 5000 rpm. 10 μL of liquid was then sampled from each vial, accurately weighed, and diluted with 1 mL of acetonitrile. The drug concentration was analyzed by UV using an Agilent HPLC system with no column, 10 μL injection volume, acetonitrile mobile phase, 0.3 mL/min and UV detection at 350 nm.

[2] = Human pharmacokinetic study (oral, intravenous, intranasal cross-over); settings: 1 mg; for AUC / Cmax / Tmax / bioavailability: male, plasma; for bioavailability: other: intranasal, intranasal 1 mg
Procedure: The human pharmacokinetics, safety, and tolerability of the benzodiazepines compositions of the present invention formulated for intranasal delivery for therapeutic applications are evaluated using standard clinical procedures. Benzodiazepine compositions formulated for intranasal delivery are provided, for example, for application by the participants to intranasal mucosa.
A primary objective of initial studies in humans is to determine and compare pharmacokinetic profiles of three dosage forms of a benzodiazepine: oral, i.v., and intranasal, following single administration. An example of such a study in humans is a cross-over study performed in 12 healthy male volunteers. Plasma and urine level of clonazepam and 7-amino-clonazepam are determined, for example, using HPLC and UV detection. […] Further the initial studies in humans are used to determine local tolerability of intranasal formulation using questionnaire and the Visual Analog Scale (VAS). VAS is a validated instrument that has been used in numerous studies to quantify subjective […]. In addition, cognitive, sleepiness and mood effects are evaluated using questionnaires and scales (see, e.g., Example 10 below). Further, attention and vigilance may be evaluated using, for example, LEEDS Psychomotor Multiple Choice Reaction Time (MCRT) testing.
A human pharmacokinetic study was carried out as described in Example 8.
15 young, healthy male volunteers received a single dose of 1 mg clonazepam by oral, intravenous and intranasal routes in a three-period cross-over design.

[3] = qEEG mapping in volunteers; format: in vivo; settings: human, oral

## O=C1CN=C(c2ccccc2Cl)c2cc([N+](=O)[O-])ccc2N1 [Clonazepam, 5-(2-chlorophenyl)-1,3-dihydro-7-nitro-2H-1,4-benzodiazepin-2-one]
[1]; 1,2-dimethyxoethane
  solubility: 39.3 mg/mL (≈ 124 mM)
[1]; di(ethylene glycol) diethyl ether
  solubility: 19 mg/mL (≈ 60.2 mM)
[1]; di(ethylene glycol) methyl ether
  solubility: 56.4 mg/mL (≈ 179 mM)
[1]; diethylene glycol monoethyl ether (DEGEE)
  solubility: 41.8 mg/mL (≈ 132 mM)
[2]
  Cmax of the intranasal route as % of the intravenous route: 17%
  Cmax of the intranasal route as % of the oral route: 93%
[2]; inhaled or intranasal
  AUC: ~58 ng·h/mL
  Cmax: 7.12 ± 3.81 ng/mL
  Tmax: 12 min
[2]; intravenous
  Tmax: 6 min
[2]; iv
  AUC: ~106 ng·h/mL
  Cmax: 42.5 ± 10.8 ng/mL
[2]; bioavailability relative to intravenous
  bioavailability: 55%
[2]; bioavailability relative to oral
  bioavailability: 61%
[2]; po
  AUC: ~95 ng·h/mL
  Cmax: 7.64 ± 1.74 ng/mL
  Tmax: 120 min
[3]
  time after dosing at which EEG pattern (increased delta and beta, decreased alpha and theta) was noted: approximately 2 hours
